Where two headings read alike, the source gives them in different places.
What was measured:
[1] = Preliminary stability of sample solution in water and methanol; type: physicochemical; details: 1 mg/mL stock prepared 2018 Jun. 25, analysed Jun. 29, Jul. 2, Jul. 7
Procedure: 2018 Jun. […] For each sample test, the stock solution was taken and diluted freshly.
2018 Jun. 29 200 μL of the stock solution was pipetted, 3800 μL of a mobile phase in the initial ratio was added, and 10 μL of a test sample with a concentration of 50 μg/mL was prepared for injection and analysis.
2018 Jul. 2 200 μL of the stock solution was pipetted, 3800 μL of a mobile phase in the initial ratio was added, and 10 μL of a test sample with a concentration of 50 μg/mL was prepared for injection and analysis.
2018 Jul. 7 200 μL of the stock solution was pipetted, 3800 μL of a mobile phase in the initial ratio was added, and 10 μL of a test sample with a concentration of 50 μg/mL was prepared for injection and analysis.
29, 2018 Jul. 2, and 2018 Jul.

[2] = tested on: MCAO rats; assay: Cerebral infarction, cerebral edema and nerve function of rats with focal cerebral ischemia (MCAO); type: in vivo, SD rats; details: MCAO rats; for inhibition at 10 mg/kg/day: Rattus norvegicus
[3] = molecular target: hERG potassium channel of CHO-hERG cells (Homo sapiens, UniProt Q12809); assay: Effect on hERG potassium channel (automatic patch clamp)
[4] = 10 mg/kg/day iv 3 days (combinations equimolar), first dose 2 h after reperfusion

Chain of hERG potassium channel of CHO-hERG cells (Q12809 whole entry, the tested form may be a part): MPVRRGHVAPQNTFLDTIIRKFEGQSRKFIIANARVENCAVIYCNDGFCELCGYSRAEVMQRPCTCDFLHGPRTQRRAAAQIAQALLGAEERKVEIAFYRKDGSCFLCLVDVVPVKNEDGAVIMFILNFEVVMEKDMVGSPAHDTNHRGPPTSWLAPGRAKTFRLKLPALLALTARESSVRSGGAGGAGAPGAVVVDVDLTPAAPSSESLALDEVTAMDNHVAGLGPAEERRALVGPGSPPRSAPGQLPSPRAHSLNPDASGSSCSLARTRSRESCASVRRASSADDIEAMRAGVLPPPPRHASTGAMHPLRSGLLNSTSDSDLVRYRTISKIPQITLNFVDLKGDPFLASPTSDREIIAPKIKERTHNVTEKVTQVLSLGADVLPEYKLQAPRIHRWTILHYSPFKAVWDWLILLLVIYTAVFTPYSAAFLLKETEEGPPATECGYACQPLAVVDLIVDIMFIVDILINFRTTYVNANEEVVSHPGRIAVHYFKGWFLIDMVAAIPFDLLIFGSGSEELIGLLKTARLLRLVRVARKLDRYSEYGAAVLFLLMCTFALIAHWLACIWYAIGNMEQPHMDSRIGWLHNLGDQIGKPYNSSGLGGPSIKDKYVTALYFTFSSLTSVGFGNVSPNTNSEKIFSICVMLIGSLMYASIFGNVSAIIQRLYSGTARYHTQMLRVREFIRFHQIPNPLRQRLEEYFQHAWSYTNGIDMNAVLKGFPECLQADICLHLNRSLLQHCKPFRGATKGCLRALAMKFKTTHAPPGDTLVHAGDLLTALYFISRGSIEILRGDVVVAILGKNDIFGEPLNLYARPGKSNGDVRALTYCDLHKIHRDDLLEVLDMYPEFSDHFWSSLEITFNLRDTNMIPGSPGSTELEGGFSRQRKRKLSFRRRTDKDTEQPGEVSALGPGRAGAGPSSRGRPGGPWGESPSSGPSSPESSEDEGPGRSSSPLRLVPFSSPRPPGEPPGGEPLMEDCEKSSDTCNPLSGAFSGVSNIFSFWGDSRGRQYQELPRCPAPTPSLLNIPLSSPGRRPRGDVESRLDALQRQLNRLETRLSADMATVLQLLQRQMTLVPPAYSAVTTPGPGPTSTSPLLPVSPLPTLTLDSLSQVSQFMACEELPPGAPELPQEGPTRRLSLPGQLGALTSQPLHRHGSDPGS

## CCCC[C@H](OC(C)=O)c1ccccc1C(=O)O [I1s, L-Arginine (S)-2-(1-Acetoxy-n-Pentyl) Benzoate]
[1]
  Stability of the sample solution in CH3OH: basically stable
  Stability of the sample solution in H2O: basically stable
[2]; [4]
  Cerebral edema: 0.18 ± 3.96%
  Infarct volume: 9.12 ± 1.18%
[2]; 10 mg/kg/day iv, 2 h after reperfusion
  Neurological function of rats with focal cerebral ischemia: significant neurological improvement effects
[2]; 10 mg/kg/day iv 3 days (combinations equimolar), first dose 2 h after reperfusion, read-out: Inhibition rate of cerebral edema
  inhibition at 10 mg/kg/day: 98.8%
[2]; 10 mg/kg/day iv 3 days (combinations equimolar), first dose 2 h after reperfusion, read-out: Inhibition rate of infarct volume
  inhibition at 10 mg/kg/day: 78.2%
[3]
  IC50: > 40 µM

Reference: patent publication US11814352B2, “Salts formed by 2-(1-acyloxy-n-pentyl) benzoic acid and basic amino acid or aminoguanidine, and preparation method and application thereof” (JIANGSU KANION PHARMACEUTICAL CO., LTD., priority 2018, dated 2023)
